Literature values, collected in patent US20090155358A1, “PHARMACEUTICAL COMPOSITIONS OF SHORT-ACTING HYPNOTIC AGENTS IN MODIFIED-RELEASE FORMS AND THE […] PREPARE THE MENTIONED FORMULATION” (Gador S.A., priority 2005, published 2009).
Structures can show the parent of a compound that is named as a salt.

Tests used:
BZ1 receptor = target: T1, BZ1 receptor (Homo sapiens, UniProt P14867+P18507); settings: in vitro
T1 sequence (P14867 28-456): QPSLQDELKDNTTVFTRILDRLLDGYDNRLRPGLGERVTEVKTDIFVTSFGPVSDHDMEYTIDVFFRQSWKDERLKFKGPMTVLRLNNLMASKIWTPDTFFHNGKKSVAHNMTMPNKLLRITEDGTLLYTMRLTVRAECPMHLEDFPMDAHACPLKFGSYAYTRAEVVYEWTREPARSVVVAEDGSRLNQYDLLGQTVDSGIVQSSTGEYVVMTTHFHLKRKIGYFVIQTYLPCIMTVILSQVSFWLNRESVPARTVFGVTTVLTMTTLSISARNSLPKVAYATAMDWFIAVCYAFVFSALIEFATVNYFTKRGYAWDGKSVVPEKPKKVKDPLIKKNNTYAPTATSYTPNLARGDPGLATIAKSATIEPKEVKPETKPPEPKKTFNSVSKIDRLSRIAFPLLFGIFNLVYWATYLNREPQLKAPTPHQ
T1 sequence (P18507 40-467 limits assumed): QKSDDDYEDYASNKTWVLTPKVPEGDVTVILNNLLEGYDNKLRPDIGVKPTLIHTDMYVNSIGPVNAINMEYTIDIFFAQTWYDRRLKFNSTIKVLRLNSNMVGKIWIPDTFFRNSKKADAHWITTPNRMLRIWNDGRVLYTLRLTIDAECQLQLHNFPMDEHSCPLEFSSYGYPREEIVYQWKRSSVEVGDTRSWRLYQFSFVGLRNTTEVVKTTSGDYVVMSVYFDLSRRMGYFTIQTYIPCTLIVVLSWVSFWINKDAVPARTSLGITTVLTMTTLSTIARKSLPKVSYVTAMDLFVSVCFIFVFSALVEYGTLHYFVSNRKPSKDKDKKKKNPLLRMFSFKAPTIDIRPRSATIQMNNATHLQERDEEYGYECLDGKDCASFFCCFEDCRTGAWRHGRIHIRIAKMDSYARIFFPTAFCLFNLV
T1 sequence (P47870 25-512 partner limits assumed): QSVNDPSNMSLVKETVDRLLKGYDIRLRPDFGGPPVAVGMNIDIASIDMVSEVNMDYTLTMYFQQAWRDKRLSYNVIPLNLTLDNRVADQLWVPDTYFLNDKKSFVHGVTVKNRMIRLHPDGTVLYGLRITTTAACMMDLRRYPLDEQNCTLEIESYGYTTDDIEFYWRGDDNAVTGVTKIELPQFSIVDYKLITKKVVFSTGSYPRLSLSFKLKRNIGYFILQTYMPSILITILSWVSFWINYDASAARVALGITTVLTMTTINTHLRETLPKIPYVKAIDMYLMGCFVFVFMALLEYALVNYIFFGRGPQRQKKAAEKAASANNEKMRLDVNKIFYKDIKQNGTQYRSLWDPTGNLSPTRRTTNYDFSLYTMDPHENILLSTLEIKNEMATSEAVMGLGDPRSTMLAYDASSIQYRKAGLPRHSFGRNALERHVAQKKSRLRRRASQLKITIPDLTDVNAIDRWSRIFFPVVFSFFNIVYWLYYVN

SMILES	affinity for BZ1 receptor, subunits α1/α5 (BZ1 receptor)	solubility in alcohol (alcohol)	solubility in propylene glycol (propylene glycol)	solubility in water (water)
Cc1ccc(-c2nc3ccc(C)cn3c2CC(=O)N(C)C)cc1 [Zolpidem, N,N,6-trimethyl-2-p-toyl-imidazo[1,2-a]pyridine-3-acetamide]	large affinity	–	–	–
Cc1ccc(-c2nc3ccc(C)cn3c2CC(=O)N(C)C)cc1 [Zolpidem tartrate, N,N,6-trimethyl-2-p-toyl-imidazo[1,2-a]pyridine-3-acetamide]	–	sparingly soluble	sparingly soluble	sparingly soluble
